Read-outs that look alike come from different tables or passages of the source.
Columns and labels:
[1] = test system: mRNA expressed from the genes (A) to (D) in rat liver; assay: Behavior of genes (mRNA expression level, oligo-DNA microarray) in rat liver after 28-day oral administration; assay type: in vivo
How it was run: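 Rat liver RNA after 28 days of daily gavage dosing (male F344, 5 weeks old, four per group). A change reaching 1.5-fold, or 1/1.5, against solvent control scores as significant; opposite direction versus another carcinogen scores as not significant.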

liver = conditions: cited from earlier work
rodent = conditions: cited from earlier work
[2] = cited from earlier work
[3] = gene group (A), Unigene No. Rn.167075, mRNA vs vehicle control group
[4] = gene group (C), Unigene No. Rn.120914, mRNA vs vehicle control group

Compound: O=CCCCC=O [TS081, Glutaraldehyde]
- Behavior of gene caused by administration of chemical substance ([1]; Gene No. 154, Rn.185941, group (C)): −
- Behavior of gene caused by administration of chemical substance ([1]; Gene No. 533, Rn.106184, group (C)): +
- Behavior of gene caused by administration of chemical substance ([1]; Gene No. 725, Rn.108075, group (C)): −
- Behavior of gene caused by administration of chemical substance ([1]; Gene No. 813, Rn.201760, group (C)): −
- Behavior of gene caused by administration of chemical substance ([1]; Gene No. 893, Rn.164817, group (C)): −
- Behavior of gene caused by administration of chemical substance ([1]; Gene No. 1119, Rn.9757, group (C)): −
- Behavior of gene caused by administration of chemical substance ([1]; Gene No. 1131, Rn.144946, group (C)): −
- Behavior of gene caused by administration of chemical substance ([1]; Gene No. 1163, Rn.11766, group (C)): −
- Behavior of gene caused by administration of chemical substance ([1]; Gene No. 1334, Rn.120914, group (C)): −
- Behavior of gene caused by administration of chemical substance ([1]; Gene No. 1494, Rn.1430, group (B)): −
- Behavior of gene caused by administration of chemical substance ([1]; Gene No. 1562, Rn.14744, group (C)): −
- Behavior of gene caused by administration of chemical substance ([1]; Gene No. 1741, Rn.1647, group (C)): −
- Behavior of gene caused by administration of chemical substance ([1]; Gene No. 1993, Rn.18728, group (C)): −
- Behavior of gene caused by administration of chemical substance ([1]; Gene No. 2026, Rn.167075, group (A)): −
- Behavior of gene caused by administration of chemical substance ([1]; Gene No. 2045, Rn.19329, group (B)): −
- Behavior of gene caused by administration of chemical substance ([1]; Gene No. 2203, Rn.21240, group (B)): −
- Behavior of gene caused by administration of chemical substance ([1]; Gene No. 2494, Rn.23969, group (C)): −
- Behavior of gene caused by administration of chemical substance ([1]; Gene No. 2546, Rn.24561, group (C)): −
- Behavior of gene caused by administration of chemical substance ([1]; Gene No. 3776, Rn.43232, group (C)): −
- Behavior of gene caused by administration of chemical substance ([1]; Gene No. 3929, Rn.4620, group (C)): −
- Behavior of gene caused by administration of chemical substance ([1]; Gene No. 4095, Rn.119024, group (C)): −
- Behavior of gene caused by administration of chemical substance ([1]; Gene No. 4218, Rn.167075, group (A)): −
- Behavior of gene caused by administration of chemical substance ([1]; Gene No. 4846, Rn.144554, group (A)): −
- Behavior of gene caused by administration of chemical substance ([1]; Gene No. 4973, Rn.118529, group (C)): +
- Behavior of gene caused by administration of chemical substance ([1]; Gene No. 5600, Rn.9836, group (A)): −
- Behavior of gene caused by administration of chemical substance ([1]; Gene No. 5634, Rn.9862, group (C)): −
- Behavior of gene caused by administration of chemical substance ([1]; Gene No. 5726, Rn.9939, group (D)): −
- Behavior of gene caused by administration of chemical substance ([1]; Gene No. 5878, Rn.143213, group (C)): −
- Behavior of gene caused by administration of chemical substance ([1]; Gene No. 6026, Rn.167685, group (C)): −
- Behavior of gene caused by administration of chemical substance ([1]; Gene No. 6182, Rn.5834, group (A)): −
- Behavior of gene caused by administration of chemical substance ([1]; Gene No. 6303, Rn.123063, group (C)): −
- Behavior of gene caused by administration of chemical substance ([1]; Gene No. 6620, Rn.120914, group (C)): −
- Behavior of gene caused by administration of chemical substance ([1]; Gene No. 6742, Rn.9779, group (C)): +
- Liver carcinogenicity (liver; in vivo): Cr−
- Carcinogenicity (rodent; classification C+/C−): C−
- Mutagenicity by Ames test ([2]; classification M+/M−): M+

Compound: C#C[C@]1(O)CC[C@H]2[C@@H]3CCc4cc(O)ccc4[C@H]3CC[C@@]21C [TS019, Ethinylestradiol]
- Behavior of gene caused by administration of chemical substance, Gene No. 4846 ([1]; gene group (A), Unigene No. Rn.144554, mRNA vs vehicle control group): +
- Behavior of gene caused by administration of chemical substance, Gene No. 2026 [1, 3]: −
- Behavior of gene caused by administration of chemical substance, Gene No. 4218 [1, 3]: −
- Behavior of gene caused by administration of chemical substance, Gene No. 6182 ([1]; gene group (A), Unigene No. Rn.5834, mRNA vs vehicle control group): +
- Behavior of gene caused by administration of chemical substance, Gene No. 5600 ([1]; gene group (A), Unigene No. Rn.9836, mRNA vs vehicle control group): −
- Behavior of gene caused by administration of chemical substance, Gene No. 1494 ([1]; gene group (B), Unigene No. Rn.1430, mRNA vs vehicle control group): −
- Behavior of gene caused by administration of chemical substance, Gene No. 2045 ([1]; gene group (B), Unigene No. Rn.19329, mRNA vs vehicle control group): −
- Behavior of gene caused by administration of chemical substance, Gene No. 2203 ([1]; gene group (B), Unigene No. Rn.21240, mRNA vs vehicle control group): +
- Behavior of gene caused by administration of chemical substance, Gene No. 533 ([1]; gene group (C), Unigene No. Rn.106184, mRNA vs vehicle control group): +
- Behavior of gene caused by administration of chemical substance, Gene No. 725 ([1]; gene group (C), Unigene No. Rn.108075, mRNA vs vehicle control group): +
- Behavior of gene caused by administration of chemical substance, Gene No. 1163 ([1]; gene group (C), Unigene No. Rn.11766, mRNA vs vehicle control group): +
- Behavior of gene caused by administration of chemical substance, Gene No. 4973 ([1]; gene group (C), Unigene No. Rn.118529, mRNA vs vehicle control group): +
- Behavior of gene caused by administration of chemical substance, Gene No. 4095 ([1]; gene group (C), Unigene No. Rn.119024, mRNA vs vehicle control group): +
- Behavior of gene caused by administration of chemical substance, Gene No. 1334 [1, 4]: +
- Behavior of gene caused by administration of chemical substance, Gene No. 6620 [1, 4]: +
- Behavior of gene caused by administration of chemical substance, Gene No. 6303 ([1]; gene group (C), Unigene No. Rn.123063, mRNA vs vehicle control group): +
- Behavior of gene caused by administration of chemical substance, Gene No. 5878 ([1]; gene group (C), Unigene No. Rn.143213, mRNA vs vehicle control group): +
- Behavior of gene caused by administration of chemical substance, Gene No. 1131 ([1]; gene group (C), Unigene No. Rn.144946, mRNA vs vehicle control group): +
- Behavior of gene caused by administration of chemical substance, Gene No. 1562 ([1]; gene group (C), Unigene No. Rn.14744, mRNA vs vehicle control group): +
- Behavior of gene caused by administration of chemical substance, Gene No. 1741 ([1]; gene group (C), Unigene No. Rn.1647, mRNA vs vehicle control group): +
- Behavior of gene caused by administration of chemical substance, Gene No. 893 ([1]; gene group (C), Unigene No. Rn.164817, mRNA vs vehicle control group): +
- Behavior of gene caused by administration of chemical substance, Gene No. 6026 ([1]; gene group (C), Unigene No. Rn.167685, mRNA vs vehicle control group): +
- Behavior of gene caused by administration of chemical substance, Gene No. 154 ([1]; gene group (C), Unigene No. Rn.185941, mRNA vs vehicle control group): +
- Behavior of gene caused by administration of chemical substance, Gene No. 1993 ([1]; gene group (C), Unigene No. Rn.18728, mRNA vs vehicle control group): +
- Behavior of gene caused by administration of chemical substance, Gene No. 813 ([1]; gene group (C), Unigene No. Rn.201760, mRNA vs vehicle control group): −
- Behavior of gene caused by administration of chemical substance, Gene No. 2494 ([1]; gene group (C), Unigene No. Rn.23969, mRNA vs vehicle control group): +
- Behavior of gene caused by administration of chemical substance, Gene No. 2546 ([1]; gene group (C), Unigene No. Rn.24561, mRNA vs vehicle control group): +
- Behavior of gene caused by administration of chemical substance, Gene No. 3776 ([1]; gene group (C), Unigene No. Rn.43232, mRNA vs vehicle control group): +
- Behavior of gene caused by administration of chemical substance, Gene No. 3929 ([1]; gene group (C), Unigene No. Rn.4620, mRNA vs vehicle control group): +
- Behavior of gene caused by administration of chemical substance, Gene No. 1119 ([1]; gene group (C), Unigene No. Rn.9757, mRNA vs vehicle control group): +
- Behavior of gene caused by administration of chemical substance, Gene No. 6742 ([1]; gene group (C), Unigene No. Rn.9779, mRNA vs vehicle control group): −
- Behavior of gene caused by administration of chemical substance, Gene No. 5634 ([1]; gene group (C), Unigene No. Rn.9862, mRNA vs vehicle control group): +
- Behavior of gene caused by administration of chemical substance, Gene No. 5726 ([1]; gene group (D), Unigene No. Rn.9939, mRNA vs vehicle control group): −
- Liver carcinogenicity (liver; classification of the substance (Cr+/Cr−)): Cr+
- Carcinogenicity (rodent; classification of the substance (C+/C−)): C+
- Mutagenicity by Ames test ([2]; classification of the substance (M+/M−)): M−

Source: patent publication US20110039721A1, “METHOD FOR PREDICTION ABOUT CARCINOGENICITY OF SUBSTANCE IN RODENT” (Chemicals Evaluation and Research Institute, priority 2007, published 2011)
